# Source: patent US20070207145A1, “MOUSE/HUMAN […] ANTI-PHE[…] AND USES THEREOF” (BOARD OF TRUSTEES OF THE UNIVERSITY OF ARKANSAS, priority 2003, published 2007)
# B1: ch-mAb6B5: mouse/human chimeric anti-PCP monoclonal antibody: mAb6B5 variable domains on human IgG2 heavy chain and kappa light chain constant domains (antibody)
# heavy: MECSCVMLFLLSGTAGVLSEVQLQQSGPELVKPGASVKMSCKASGYTGTDYYIHWMKQSHGKSLEWIGYIYPNNGGNGYNQKFKGKATLTVDKSSSTAYMELRTLTSEDSAVYYCGRSTWDDFDYWGQGTTLTVSSASTKGPSVFPLAPCSRSTSESTAALGCLVKDYFPEPVTVSWNSGALTSGVHTFPAVLQSSGLYSLSSVVTVPSSNFGTQTYTCNVDHKPSNTKVDKTVERKCCVECPPCPAPPVAGPSVFLFPPKPKDTLMISRTPEVTCVVVDVSHEDPEVQFNWYVDGVEVHNAKTKPREEQFNSTFRVVSVLTVVHQDWLNGKEYKCKVSNKGLPAPIEKTISKTKGQPREPQVYTLPPSREEMTKNQVSLTCLVKGFYPSDIAVEWESNGQPENNYKTTPPMLDSDGSFFLYSKLTVDKSRWQQGNVFSCSVMHEALHNHYTQKSLSLSPGK
# light: MKLPVRLLVLMFWIPASSSDVLMTQTPLSLPVSLGDQASISCRSSQTIVHSNGNTYLEWYLQKPGQSPKLLIYKVSNRFSGVPDRFSGSGSGTDFTLKISRVEAEDLGVYYCFQGTHAPYTFGGGTKLEIKTAAAPSVFIFPPSDEQLKSGTASVVCLLNNFYPREAKVQWKVDNALQSGNSQESVTEQDSKDSTYSLSSTLTLSKADYEKHKVYACEVTHQGLSSPVTKSFNRGEC
# modifications: Amino acid sequence of anti-PCP ch-mAb6B5 heavy chain.; Amino acid sequence of anti-PCP ch-mAb6B5 light chain.
# Experiments:
# PCP receptor = details: drug discrimination and PCP receptor binding assays; cited from earlier work
# [1] = test system: PCP's adverse health effects; assay: dose-dependent effects of mAb6B5 IgG on health and behavior of rats continuously infused with PCP; assay type: in vivo
# Procedure: This series of experiments assessed the dose-dependent effects mAb6B5 IgG on measures of health and behavior (Laurenzana et al., 2003). Rats were implanted with s.c. osmotic minipumps filled to deliver PCP at a rate of 18 mg/kg/day. Baseline PCP-induced locomotor activity was assessed (24 hr after start of PCP infusion), and then saline or various doses of mAb6B5 IgG were administered i.v. The doses of mAb6B5 ranged from 1 mol-eq of serum PCP concentration at steady state (1.53 g/kg of mAb6B5 IgG), down to 0.003 mol-eq (0.005 g/kg).
# On a daily basis, rats were assessed on the amount of food eaten, body weight, general health, and evidence of chromodacryorrhea (“bloody tears” or red lacrimal secretions), an indicator of PCP-induced stress. […] The dose-dependent effects of mAb6B5 IgG on body weight produced some of the most interesting and profound effects (FIG. 8). […] PCP-induced reductions in feeding and drinking behavior obviously contributed to the weight loss in these groups. But their eating behavior normalized by day 4, probably secondary to the development of tolerance to the drug. This allowed these rats to better maintain their health and well-being. […] The PCP-induced weight loss achieved maximum on about day 4 of the experiment. […] 25% of the rats died or had to be sacrificed for humane reasons. […]
# [2] = in humans; cited from earlier work
# [3] = rats, s.c. infusion 18 mg/kg/day; cited from earlier work
# [4] = radioimmunoassay (RIA) with [3H]PCP; assay type: binding
# Procedure: A 100 μl aliquot of [^3H]PCP (30,000-40,000 dpm) in RIA buffer (50 mM Tris-HCl adjusted to pH 7.6, 0.15M NaCl, 0.1% BSA and 0.2% NaN3) was added to 50×14 mm sample tubes (Sarsedt, Princeton, N.J.). Then 100 γl of appropriate concentration of test ligand was added to duplicate tubes. […] A 100 μl aliquot of this dilution was then added to all tubes except the tubes for non-specific binding. To nonspecific binding tubes 100 μl of RIA buffer was added. After vortex mixing, the tubes were incubated at 4-8° C. overnight. Next, 1 ml of RIA buffer containing 5% goat anti-mouse IgG (Pel-Freez Biologicals, Rogers, Ark.) and 5% polyethylene glycol 8000 (J. T. Baker Chemical Co.) was added. The tubes were incubated for 15 min at 4-8° C. and centrifuged at the same temperature for 15 min at 2000×g to precipitate the antibody-bound reactivity. The supernatant fluid was aspirated and the pellet was resuspended in the same test tube with 2 ml of scintillation fluid (Liquiscint, National Diagnostics, Manville, N.J.). The tube was placed in a 7 ml scintillation vial and the concentration of [^3H]PCP was determined by liquid scintillation spectrometry.
# The IC50 for both methods very closely approximates the affinity of an antibody.
molecule,measurement,setting,value
"CCNC1(c2ccccc2)CCCCC1 [PCE, N-ethyl-1-phenylcyclohexylamine]",potency relative to PCP (times more potent),PCP receptor,~6 times
"c1ccc(C2(N3CCCCC3)CCCCC2)cc1 [PCP, Phencyclidine]",rats that died or had to be sacrificed,"[1]; PCP-saline and PCP-0.003 mol Eq groups, days 4 through 7, 18 mg/kg/day",25%
same,animals that died as a result of PCP administration,[1]; repeated PCP-saline control experiment,1 of 4
same,volume of distribution (Vd),[2],6.2 L/kg
same,half-life (t1/2),[3],4 h
"c1csc(C2(N3CCCCC3)CCCCC2)c1 [TCP, 1-[1-(2-thienyl)cyclohexyl]piperidine]",potency relative to PCP (times more potent),PCP receptor,about 1.3 times
B1,IC50,[4],1.6 nM
same,Kd,[4]; chimeric antibody,1.6 nM
